This is an account of results in patent publication US20180221384A1, “COMPOSITIONS OF MIDAZOLAM FOR BUCCAL ADMINISTRATION IN THE TREATMENT OF SEIZURES TO OBTAIN RAPID ONSET OF ACTION” (SWIPP AB, priority 2015, published 2018).

Data set [1] is described as follows: Pilot in vivo study: midazolam film preparation applied on the oro-mucosal membrane, plasma levels by LC-MS/MS. The note with it: for Corresponding plasma levels in children weighing 20 kg: at least; for Side-effects: healthy volunteers. How it is done:
Film preparations weighing approximately 0.07 g (1×2 cm) containing 2 mg midazolam hydrochloride were applied on the oro-mucosal membrane in healthy volunteers (body weight 90 kg). Venous blood samples were drawn 6, 12 and 18 minutes after application.
Film preparations weighing approximately 0.07 g (1×2 cm) containing 1 mg midazolam hydrochloride were applied on the oro-mucosal membrane in healthy volunteers (body weight 90 kg). Venous blood samples were drawn 6, 12 and 18 minutes after application.

For data set [2] the following is noted: cited from earlier work.
For data set [3] the following is noted: cited from earlier work. The source holds these as a separate data set.
The mark [4] stands for this setting: human, plasma, other: applied on the oro-mucosal membrane, 1 mg.
[5] abbreviates: midazolam solution 5 mg buccal, healthy volunteers (Schwagmeier et al. 1998).

SMILES strings stand for the structures. Where a name gives a salt, the structure may show the parent alone. Read-outs that look alike come from different tables or passages of the source.

Take `Cc1ncc2n1-c1ccc(Cl)cc1C(c1ccccc1F)=NC2` [midazolam hydrochloride, Midazolam hydrochloride]: the “Corresponding plasma levels in children weighing 20 kg” value is 15 to 20 ng/mL in data set [1] (extrapolated from adults given 1 mg film) and 15 to 50 ng/mL in data set [1] (extrapolated from adults given 2 mg film). Also, the Side-effects result in data set [1] (film containing 1 mg midazolam hydrochloride) and in data set [1] (film containing 2 mg midazolam hydrochloride) was “No side-effects were observed” in each case. In data set [1] (film containing 2 mg midazolam hydrochloride, oro-mucosal, healthy volunteers 90 kg), the Average plasma levels came to 5 ng/mL. Besides, the concentration at 6 min in data set [1] (setting [4]) is 1 ng/mL. Further, the concentration at 12 min in data set [1] (setting [4]) came to 4.6 ng/mL.

In the case of `Cc1ncc2n1-c1ccc(Cl)cc1C(c1ccccc1F)=NC2` [midazolam, Midazolam], in data set [2] (approx. 10 mg midazolam, adult volunteers, most of the subjects (Scott et al. 1998)), the “Time to plasma concentration of 5 ng/mL” value is 5 to 10 min. The Blood levels in data set [2] (setting [5]) was 5 to 10 ng/mL; in data set [1] (buccal film or wafer, dose 2 mg, adult volunteers (summary in description)), 5 to 10 ng/mL. Moreover, the “Time to blood levels of 5-10 ng/mL” value in data set [2] (setting [5]) is 3 to 6 min. In addition, in data set [1] (buccal film, dose 1 mg midazolam, adult 90 kg (summary in description)), the Plasma level result was “about 5 ng/mL”. In addition, in data set [1] (buccal film, dose 1 mg, adults average body weight 90 kg), the “Plasma level (in words)” value is on record as “therapeutic levels”. Also, the “Time to anticonvulsive effect” value in data set [3] (adults administered 10-20 mg (Nakken et al. 2011)) is at most 5 min; in data set [3] (children, buccal dose 0.2 mg/kg (Talukbar et al. 2009)), at most 5 min.
